Where two headings read alike, the source gives them in different places.
What was measured:
[1] = Toxicity of 4α-(N-phenyl)miliusate in mice; type: in vivo, BALB/c nude mice
From the text: All animal studies are approved and performed according to Animal Care and Use Guidelines of the Animal Ethics Committee at Hong Kong Baptist University and performed following Animal Care and Use guidelines set by NIH (National Institute of Health, USA). BALB/c nude mice, SPF class, male or female, 7-8 weeks old (average body weight 22 g), are purchased from Charles River Laboratories. Before the experiment, the mice are kept for one week of acclimatization to SPF class laboratory conditions. […] Every other day injections at i.p. sites are scheduled for 21 days. Weights of mice are measured twice a week until the end of the experiment.

HIV/VSV-G virions [2] = conditions: read-out: Anti-HIV Activity (EC50)
HIV/VSV-G virions [3] = assay: in vitro; conditions: human
HIV/VSV-G virions [4] = assay: microbe, parasite or virus in culture; conditions: Human immunodeficiency virus 1, A549, in Homo sapiens, 48 h, read-out: Anti-HIV Activity (EC50)
[5] = system: HIV/HA virions (H5N1 HA and NA); conditions: human
[6] = system: HIV/HA virions (H5N1 HA and NA); assay: in vitro; conditions: human, Selective Index (CC50/IC50), anti-H5N1
[7] = system: HIV/HA virions (H5N1 HA and NA); assay: microbe, parasite or virus in culture; conditions: Human immunodeficiency virus 1, H5N1, A549, in Homo sapiens, 48 h, read-out: Anti-H5N1 Activity (EC50)
[8] = 20 and 40 mg/kg i.p., every other day for 21 days, 10 mice/group

Molecule: 4α-(N-Phenyl)miliusate
- Health of mice [1, 8]: all mice remained healthy
- Weight loss of mice [1, 8]: no weight loss
- Toxicity in mice ([1]; doses of 40 mg/kg): no toxicity
- EC50 (HIV/VSV-G virions [2]): 2.7 µM

Molecule: 8′,10′-Dihydroxy-miliusate
- EC50 (HIV/VSV-G virions [2]): 14.4 µM

Molecule: 10′-Hydroxy-8′-oxo-miliusate
- EC50 (HIV/VSV-G virions [2]): 4.97 µM

Molecule: CC(=O)O[C@@H]1CCC(=O)C2(CC(=O)O[C@@H]2/C=C(\C)CCC=C(C)C)C1 (some centres unmarked) [3,4-Dihydro-miliusate]
- selectivity ratio (HIV/VSV-G virions [3]): 1
- EC50 (HIV/VSV-G virions [4]): 67 µM

Molecule: CO[C@@H]1CC(=O)C2(CC(=O)O[C@@H]2/C=C(\C)CCC=C(C)C)C[C@@H]1O (some centres unmarked) [Miliusane I]
- Selective Index (CC50/IC50), anti-H5N1 [5]: 10
- selectivity ratio [6]: 9.5
- EC50 [7]: 0.71 µM

— US10323012B2 (priority 2012, dated 2019)
